Consider one compound from patent US10702524B2, “Use of a compound in repairing nerve injury” (priority 2017, dated 2020).

“Also recorded” adds a separate entry of the source.

One assay relates to ICAM1. Description: ICAM1 expression of spinal cord tissue by Western Blot, rat spinal cord injury model. It is filed as in vivo. Conditions: 15 mg/kg injected 15 minutes before striking injury, experimental group vs control group, gray level analysis. Here is the method: (§1) Animal models of acute spinal cord injury experiment were established by using an IMPACTOR MODEL-II spinal cord injury striking system. Sixty female Wistar rats with the age from 8 to 10 weeks and the weight from 230 to 250 g were divided into three groups with 20 rats in each group: a sham-surgery operated group, a control group (spinal cord injury group) and an experimental group, respectively. At 15 minutes before striking injury, the rats in the experimental group were injected with the compound of the formula (I) at a dose of 15 mg/kg body weight.
(§2) At 6 hours, 24 hours, 48 hours, 7 days, 14 days, and 28 days after injury, respectively, the rat spinal cord tissues were sampled for the Western Blot test, so as to test the inhibiting function of the compound of the formula (I) against the pro-inflammatory cytokines at the spinal cord injury sites.
On the technique in general: A western blot detects proteins with antibodies after separation by electrophoresis.

For a further assay, the system named is IL-1β. Description: IL-1β expression of spinal cord tissue by Western Blot, rat spinal cord injury model. It is filed as in vivo. To be noted: 15 mg/kg, experimental group vs control group, gray level analysis. Here is the method:
as §1, §2

The test system of the next assay is oligodendrocytes. In words: CNpase immunohistochemical staining (oligodendrocyte survival), rat spinal cord injury model. The assay is classed as in vivo. As for the experimental part: as §1
At 48 hours and 2 weeks after injury, respectively, the three groups of spinal cord tissues were subjected to CNpase immunohistochemical staining.

For assay [1], the system named is rats after spinal cord injury. In words: BBB score of motor function of rear limbs after spinal cord injury. It is filed as in vivo, rat. To be noted: comparison between experimental group and control group. Here is the method:
as §1
Motor function of rear limbs of the tested animals were evaluated by scoring with BBB (Basso Beattie Bresnahan locomotor rating scale, BBB). The BBB scoring was one of internationally recognized objective standards regarding nerve functions of rats after spinal cord injury. In the project, the motor function of rear limbs of the rats was evaluated from 1 day before injury to 8 weeks after injury by double-blind independent observations and records with two persons and finally statistical analyses.

The next assay relates to TNF-α. In words: TNF-α expression of spinal cord tissue by Western Blot, rat spinal cord injury model. It is filed as in vivo. To be noted: 15 mg/kg, experimental group vs control group, gray level analysis. Here is the method:
as §1, §2

Another assay relates to Caspase 3. In words: Caspase 3 expression of spinal cord tissue by Western Blot, rat spinal cord injury model. It is filed as in vivo. Conditions: 15 mg/kg, experimental group vs control group, gray level analysis. As for the experimental part:
as §1
(§3) At 6 hours, 24 hours, 48 hours, 7 days, 14 days, 28 days and 56 days after injury, respectively, the rat spinal cord tissues were sampled for the Western Blot test and TUNEL staining, so as to test the inhibiting function of the compound of the formula (I) against the cell apoptosis at the spinal cord injury sites.

The next assay relates to NEUN(+) neuron cells. Description: NEUN immunohistochemical staining (neuron survival), rat spinal cord injury model. The assay is classed as in vivo. Conditions: 48 hours and 2 weeks after injury; experimental group vs control group. Here is the method: as §1
At 48 hours and 2 weeks after injury, respectively, the three groups of rat spinal cord tissues were subjected to NEUN immunohistochemical staining.

Assay [2] concerns Glial Fibrillary Acidic Protein (GFAP). In words: GFAP frozen-section immunofluorescence (glial scar), rat spinal cord injury model. It is filed as in vivo. As for the experimental part:
as §1
2. Testing Glial Fibrillary Acidic Protein (GFAP) Expression by Frozen-Section Immunofluorescence Histochemical Method
At 48 hours after injury, the spinal cord tissues were subjected to GFAP immunofluorescent staining.

The subject of assay [3] is spinal cord tissues. Description: HE staining of spinal cord tissues (void, inflammatory cells), rat spinal cord injury model. It is filed as in vivo. As for the experimental part:
as §1
No spinal cord structure destroy was observed on the rats in the sham-surgery operated group. In the control group, significant changes occurred, mainly including hemorrhage, infiltration with a large number of inflammatory cells and spinal cord structural disorder, and it was observed that in grey matter, a large number of cells were lost, while in the white matter, significant swelling of neurites was observed and axonal terminals were in sphere.

Assay [4] concerns spinal cord tissues. Description: TUNEL staining of spinal cord tissues (cell apoptosis), rat spinal cord injury model. The assay is classed as in vivo. To be noted: 48 hours after injury; 15 mg/kg; difference between control group and experimental group. Here is the method:
as §1, §3
At 48 hours after injury, TUNEL staining was performed on three groups of spinal cord tissues. TUNEL-stained positive cells were located in the gray matter and white matter of the spinal cords, and the cell nuclei was stained brown-yellow and mostly distributed in the center of the injure and the margin thereof. […]

`CC(C)(C)OC(=O)c1ccc(NC23CC4CC(CC(C4)C2)C3)c(/N=C\c2cncnc2)c1` [compound of the formula (I)]: the ICAM1 expression result in the assay with ICAM1 (2 weeks after injury) and with ICAM1 (48 hours after injury) was “significantly decreased” each time. Further, the IL-1β expression result is recorded as “significantly decreased” in the assay with IL-1β (2 weeks after injury) and “significantly decreased, close to the level of the shame-surgery operated group” in the assay on IL-1β (48 hours after injury). Further, in the assay with oligodendrocytes (2 weeks after injury, experimental group vs control group), the “CNpase positive area and positive cells” value is “had a larger positive area and more positive cells”. Also, the CNpase positive area result in the assay with oligodendrocytes (48 hours after injury, vs sham-surgery operated group) is given as “did not markedly differ from that in the shame-surgery operated group”. Further, the “survival rate of the oligodendrocytes” value in the assay on oligodendrocytes (experimental group vs control group) is recorded as “higher than that in the control group”. For the same compound, the BBB score result in [1] (1 week after injury) was “did not have any statistical significance (p>0.05)”; in assay [1] (2 weeks after injury), “had a statistical significance (p<0.05)”; in [1] (8 weeks after injury), “had a statistical significance (p<0.01); also recorded: significantly higher than that of the control group”; in assay [1] (48 hours after injury) it was “did not have any statistical significance (p>0.05)”. Besides, the TNF-α expression entry was “significantly decreased” in the assay with TNF-α (2 weeks after injury) and “decreased, close to the level of the shame-surgery operated group” in the assay on TNF-α (48 hours after injury). The “Caspase 3 expression” value in the assay on Caspase 3 (2 weeks after injury) and in the assay with Caspase 3 (48 hours after injury) was “significantly decreased” in each case. In addition, in the assay with NEUN(+) neuron cells, the “NEUN(+) neuron cells” value is “more positive cells were present in the experimental group”. Besides, the “survival rate of neuron cells” value in the assay on NEUN(+) neuron cells is listed as “higher than that in the control group”. For the same compound, the GFAP fluorescence entry in assay [2] (2 weeks after surgery, control group vs experimental group) is reported as “control group was still stronger than the experimental group”. Also, the “quantity of the formed glial scars (GFAP immunofluorescent staining)” value in [2] (48 hours after injury, experimental group vs control group) is recorded as “significantly decreased as compared to the control group”. Further, the “area of voids (HE staining)” value with spinal cord tissues [3] (8 weeks after spinal cord injury, control group compared to experimental group) is “significantly increased as compared to that in the experimental group”. Besides, the “inflammatory cells (HE staining, high magnification)” value with spinal cord tissues [3] (8 weeks after spinal cord injury, experimental group vs control group) is “significantly reduced”. Also, in the assay with spinal cord tissues [3] (48 hours after injury, 200×, 15 mg/kg, vs control group), the “HE staining changes (hemorrhage, inflammatory cell infiltration, spinal cord structural disorder)” value was “could significantly alleviate the above series of changes”. In the assay on spinal cord tissues [3] (48 hours after injury, comparison between control group and experimental group), the histopathological scores result is reported as “did not have statistical significance”. Besides, the “quantity of TUNEL-stained positive cells” value with spinal cord tissues [4] is on record as “had a statistical significance (p<0.05)”.
